Test results reported in US20100022483A1, “Substituted Tetracycline Compounds” (Paratek Pharmaceuticals, Inc., priority 2008, published 2010).
≈ marks a conversion by molar mass, not a printed value. Read-outs that look alike come from different tables or passages of the source.

What was measured:
gram positive bacteria = test: In vitro anti-bacterial activity assay (broth dilution MIC), gram positive bacteria; assay type: cell-based, S. aureus; conditions: 18 h
Method in brief: (§1)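 Broth dilution MIC following CLSI M7-A2: compounds serially diluted, log-phase test strains added to final ~5×10^5 CFU/ml, incubated ~18 hours at 35° C in ambient air. Plates read on microplate reader or visually; MIC is lowest concentration inhibiting growth.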

gram negative bacteria = test: In vitro anti-bacterial activity assay (broth dilution MIC), gram negative bacteria; assay type: cell-based, E. coli
Method in brief: as §1

[1] = Mammalian cytotoxicity assay (resazurin), COS-1 cells; assay type: cell-based; conditions: African green monkey, read-out: Cytotox. COS-1
Method in brief: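 Cells seeded overnight at 37° C., 5% CO2, then exposed to serial compound dilutions for 24 hours. Medium replaced with resazurin (0.042 mg/ml in PBS with Ca and Mg) for 2 hours plus 30 minutes dark at room temperature; fluorescence read at ex 535/em 590 nm, IC50 taken as 50% growth inhibition.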

in vitro = assay type: cell-based; conditions: Chinese hamster, Cytotox. CHO-K1
3T3 fibroblast cells = test: In vitro phototoxicity assay (neutral red; UV light-treated vs dark control plates); assay type: cell-based; conditions: for Photo Toxicity UV Tox50: UV light 50 minutes; for Photo Toxicity Dark Tox50: dark control plate
Method in brief: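 Neutral red viability readout (A535 after EtOH/acetic acid extraction) compares paired plates: one exposed 50 min to UV at 1.6–1.8 mW/cm^2, one held in darkness, both dosed with compound in HBSS and recovered overnight. 3T3 fibroblast cells used; phototoxicity taken as the difference.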

[2] = Staphylococcus aureus, S. aureus MRSA5, read-out: Median MIC's G+ S. aureus MRSA5
[3] = Staphylococcus aureus, S. aureus RN450, read-out: Median MIC's G+ S. aureus RN450
[4] = Streptococcus pneumoniae, S. pneumoniae 157E-Strep, read-out: Median MIC's G+ S. pneumoniae 157E-Strep
[5] = Escherichia coli, 18 h, E. coli D1 209, read-out: Median MIC's G− E. coli D1 209
[6] = Escherichia coli, 18 h, E. coli MG 1655, read-out: Median MIC's G− E. coli MG 1655
[7] = Escherichia coli, ATCC25922, 18 h, E. coli ATCC 25922, read-out: Median MIC's G− E. coli ATCC 25922
[8] = Pseudomonas aeruginosa, 18 h, P. aeruginosa K201 PAO6609, read-out: Median MIC's G− P. aeruginosa K201 PAO6609

| SMILES | MIC (gram positive bacteria; [2]) [µg/mL] | MIC (gram positive bacteria; [3]) [µg/mL] | MIC (gram positive bacteria; [4]) [µg/mL] | MIC (gram negative bacteria; [5]) [µg/mL] | MIC (gram negative bacteria; [6]) [µg/mL] | MIC (gram negative bacteria; [7]) [µg/mL] | MIC (gram negative bacteria; [8]) [µg/mL] | IC50 at 24 h [1] [µM] | IC50 at 24 h (in vitro) [µM] | Photo Toxicity UV Tox50 (3T3 fibroblast cells) [µM] | Photo Toxicity Dark Tox50 (3T3 fibroblast cells) [µM] |
| --- | --- | --- | --- | --- | --- | --- | --- | --- | --- | --- | --- |
| CN(C)CCCCNC(=O)c1cccc(-c2ccc(O)c3c2C[C@H]2C[C@H]4[C@H](N(C)C)C(O)=C(C(N)=O)C(=O)[C@@]4(O)C(O)=C2C3=O)c1 [CL] | 64 (≈ 101 µM) | 4 (≈ 6.32 µM) | 4 (≈ 6.32 µM) | 64 (≈ 101 µM) | 64 (≈ 101 µM) | 64 (≈ 101 µM) | 64 (≈ 101 µM) | > 41.7 | > 41.7 | >134.63 | >134.63 |
| CN(C)[C@@H]1C(O)=C(C(N)=O)C(=O)[C@@]2(O)C(O)=C3C(=O)c4c(O)ccc(-c5cccc(CCCO)c5)c4C[C@H]3C[C@@H]12 [CM] | 0.5 (≈ 0.911 µM) | 0.0625 (≈ 0.114 µM) | 0.06 (≈ 0.109 µM) | 64 (≈ 117 µM) | 64 (≈ 117 µM) | 64 (≈ 117 µM) | 64 (≈ 117 µM) | 15.1 | 14.1 | >167.5 | >167.5 |
| CN(C)CCCCNCc1ccc(O)c2c1C[C@H]1C[C@H]3[C@H](N(C)C)C(O)=C(C(N)=O)C(=O)[C@@]3(O)C(O)=C1C2=O [CN, (4S,4aS,5aR,12aS)-4-Dimethylamino-7-[(4-dimethylamino-butylamino)-methyl]-3,10,12,12a-tetrahydroxy-1,11-dioxo-1,4,4a,5,5a,6,11,12a-octahydro-naphthacene-2-carboxylic acid amide] | 64 (≈ 118 µM) | 16 (≈ 29.5 µM) | 32 (≈ 59 µM) | 64 (≈ 118 µM) | 32 (≈ 59 µM) | 32 (≈ 59 µM) | 64 (≈ 118 µM) | > 138 | > 138 | >138.03 | >138.03 |
| CN(C)[C@@H]1C(O)=C(C(N)=O)C(=O)[C@@]2(O)C(O)=C3C(=O)c4c(O)ccc(-c5cccc(/C=C/C#N)c5)c4C[C@H]3C[C@@H]12 [CO] | 0.5 (≈ 0.923 µM) | 0.0625 (≈ 0.115 µM) | 0.06 (≈ 0.111 µM) | 64 (≈ 118 µM) | 64 (≈ 118 µM) | 64 (≈ 118 µM) | 64 (≈ 118 µM) | 7.77 | 9.41 | >164.35 | >164.35 |
| CN(C)[C@@H]1C(O)=C(C(N)=O)C(=O)[C@@]2(O)C(O)=C3C(=O)c4c(O)ccc(-c5cccc(C(=O)NCCN6CCCC6)c5)c4C[C@H]3C[C@@H]12 [CR] | 16 (≈ 25.4 µM) | 1 (≈ 1.59 µM) | 0.25 (≈ 0.396 µM) | 64 (≈ 101 µM) | 16 (≈ 25.4 µM) | 64 (≈ 101 µM) | 64 (≈ 101 µM) | > 39.6 | > 39.6 | >127.91 | >127.91 |
| CN(C)CCNCc1cccc(-c2ccc(O)c3c2C[C@H]2C[C@H]4[C@H](N(C)C)C(O)=C(C(N)=O)C(=O)[C@@]4(O)C(O)=C2C3=O)c1 [CS] | 8 (≈ 13.5 µM) | 0.06 (≈ 0.102 µM) | 0.06 (≈ 0.102 µM) | 64 (≈ 108 µM) | 2 (≈ 3.39 µM) | 4 (≈ 6.77 µM) | 64 (≈ 108 µM) | > 140 | > 140 | >139.98 | >139.98 |
| CN(C)CCN(C)Cc1cccc(-c2ccc(O)c3c2C[C@H]2C[C@H]4[C@H](N(C)C)C(O)=C(C(N)=O)C(=O)[C@@]4(O)C(O)=C2C3=O)c1 [CT] | 4 (≈ 6.61 µM) | 0.0625 (≈ 0.103 µM) | 0.06 (≈ 0.0992 µM) | 4 (≈ 6.61 µM) | 2 (≈ 3.31 µM) | 2 (≈ 3.31 µM) | 64 (≈ 106 µM) | > 126 | > 126 | >126.03 | >126.03 |
| CN(C)CCCN(C)Cc1cccc(-c2ccc(O)c3c2C[C@H]2C[C@H]4[C@H](N(C)C)C(O)=C(C(N)=O)C(=O)[C@@]4(O)C(O)=C2C3=O)c1 [CU] | 16 (≈ 25.9 µM) | 0.5 (≈ 0.808 µM) | 0.125 (≈ 0.202 µM) | 32 (≈ 51.7 µM) | 8 (≈ 12.9 µM) | 8 (≈ 12.9 µM) | 32 (≈ 51.7 µM) | > 124 | > 124 | >123.6 | >123.6 |
| CN(C)CCCCNCc1cccc(-c2ccc(O)c3c2C[C@H]2C[C@H]4[C@H](N(C)C)C(O)=C(C(N)=O)C(=O)[C@@]4(O)C(O)=C2C3=O)c1 [CV] | 32 (≈ 51.7 µM) | 2 (≈ 3.23 µM) | 4 (≈ 6.46 µM) | 64 (≈ 103 µM) | 64 (≈ 103 µM) | 64 (≈ 103 µM) | 64 (≈ 103 µM) | > 135 | > 135 | >134.59 | >134.59 |
| CN(C)CCCCN(C)Cc1cccc(-c2ccc(O)c3c2C[C@H]2C[C@H]4[C@H](N(C)C)C(O)=C(C(N)=O)C(=O)[C@@]4(O)C(O)=C2C3=O)c1 [CW] | 8 (≈ 12.6 µM) | 0.06 (≈ 0.0948 µM) | 0.06 (≈ 0.0948 µM) | 4 (≈ 6.32 µM) | 2 (≈ 3.16 µM) | 2 (≈ 3.16 µM) | 64 (≈ 101 µM) | > 132 | > 132 | >132.05 | >132.05 |
| CN(C)CCCNCc1cccc(-c2ccc(O)c3c2C[C@H]2C[C@H]4[C@H](N(C)C)C(O)=C(C(N)=O)C(=O)[C@@]4(O)C(O)=C2C3=O)c1 [CX] | 8 (≈ 13.2 µM) | 0.5 (≈ 0.827 µM) | 0.25 (≈ 0.413 µM) | 32 (≈ 52.9 µM) | 16 (≈ 26.5 µM) | 16 (≈ 26.5 µM) | 64 (≈ 106 µM) | > 137 | > 137 | >137.23 | >137.23 |
